Test results reported in the supplement of paper PMC8671470.

Assays:
Conditions in all cases: 72 h
[1] = test system: myeloid leukemia patient primary cells Pat.10; assay: area under dose-response curve (viability, 1 nM-10 uM) (fraction (0-1)); higher = more sensitive
Description: (§1)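 AUC (0–1, higher = more sensitive) of the 5-point dose–response (1 nM–10 µM, 72 h, CellTiter-Glo) in primary AML/CML patient mononuclear cells. 0.030103 is the floor for inactive compounds.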

[2] = test system: myeloid leukemia patient primary cells Pat.12; assay: as above
Description: as §1

[3] = test system: myeloid leukemia patient primary cells Pat.13; assay: as above
Description: as §1

[4] = test system: myeloid leukemia patient primary cells Pat.14; assay: as above
Description: as §1

[5] = test system: myeloid leukemia patient primary cells Pat.15; assay: as above
Description: as §1

[6] = test system: myeloid leukemia patient primary cells Pat.2; assay: as above
Description: as §1

[7] = test system: myeloid leukemia patient primary cells Pat.3; assay: as above
Description: as §1

[8] = test system: myeloid leukemia patient primary cells Pat.4; assay: as above
Description: as §1

[9] = test system: myeloid leukemia patient primary cells Pat.5; assay: as above
Description: as §1

[10] = test system: myeloid leukemia patient primary cells Pat.6; assay: as above
Description: as §1

[11] = test system: myeloid leukemia patient primary cells Pat.7; assay: as above
Description: as §1

[12] = test system: myeloid leukemia patient primary cells Pat.9; assay: as above
Description: as §1

HL-60 = assay: cell viability (% survival relative to DMSO control); higher = less cytotoxic
Description: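 8x8 drug-combination matrices (0-5000 nM; rosiglitazone and lestaurtinib 0-1000 nM) were run in HL-60 cells for 72 h with a CellTiter-Glo read-out. Survival is normalised to DMSO and 10 µM bortezomib and clipped at 100%. Bliss synergy was analysed in SynergyFinder.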

[13] = test system: myeloid leukemia patient primary cells Pat.1; assay: area under dose-response curve (viability, 1 nM-10 uM) (fraction (0-1)); higher = more sensitive
Description: as §1

[14] = test system: myeloid leukemia patient primary cells Pat.8; assay: as above
Description: as §1

[15] = test system: myeloid leukemia patient primary cells Pat.11; assay: as above
Description: as §1

O=C1c2cc([N+](=O)[O-])ccc2-n2c1nc1ccccc1c2=O [GNF-Pf-3777]
Conditions | area under dose-response curve
[1] | 0.27
[2] | < 0.0301
[3] | 0.115
[4] | 0.071
[5] | 0.0672
[6] | 0.0426
[7] | 0.265
[8] | 0.14
[9] | 0.292
[10] | 0.0546
[11] | 0.0749
[12] | 0.158

O=C(C1CC1)N1CC[C@@H](C=C2NNC(=O)N2c2ccc(-c3ccc4occc4c3)cc2)C1 + CS(=O)(=O)N1CCN(Cc2cc3nc(-c4cccc5[nH]ncc45)nc(N4CCOCC4)c3s2)CC1 [Pictilisib]
cell viability [%], HL-60
Conditions | drug1 concentration 5 nM | drug1 concentration 10 nM | drug1 concentration 50 nM | drug1 concentration 100 nM | drug1 concentration 500 nM | drug1 concentration 1000 nM | drug1 concentration 5000 nM
drug2 concentration 5 nM | 93 | 71.7 | 66.5 | 59.9 | 51.3 | 56.3 | 51.5
drug2 concentration 10 nM | 70 | 68.5 | 58.9 | 60.9 | 56.7 | 55.8 | 52.9
drug2 concentration 50 nM | 59.4 | 61.7 | 54.4 | 53.3 | 52.8 | 53.1 | 51
drug2 concentration 100 nM | 60.3 | 58.5 | 51.3 | 51.5 | 45.6 | 51.7 | 52.2
drug2 concentration 500 nM | 46.9 | 49 | 44.4 | 45.7 | 34.5 | 47.1 | 45
drug2 concentration 1000 nM | 46.7 | 50.8 | 41.3 | 44.2 | 48.4 | 49.9 | 39.1
drug2 concentration 5000 nM | 38.6 | 42.6 | 40.3 | 33.2 | 38.6 | 43.5 | 36.2

Nc1nc(Cl)nc2c1ncn2[C@H]1C[C@H](O)[C@@H](CO)O1 [Cladribine]
Conditions | area under dose-response curve
[1] | 0.768
[2] | 0.438
[3] | 0.7
[4] | 0.616
[5] | 0.193
[6] | 0.463
[7] | 0.652
[8] | 0.689
[9] | 0.799
[10] | 0.611
[11] | 0.62
[12] | 0.762
[13] | < 0.0301
[14] | 0.609

COC(=O)[C@]12CCC(C)(C)C[C@H]1[C@H]1C(=O)C=C3[C@@]4(C)C=C(C#N)C(=O)C(C)(C)[C@@H]4CC[C@@]3(C)[C@]1(C)CC2 [Bardoxolone methyl]
Conditions | area under dose-response curve
[1] | 0.589
[2] | 0.0322
[3] | 0.397
[4] | 0.433
[5] | 0.207
[6] | 0.28
[7] | 0.618
[8] | 0.158
[9] | 0.699
[10] | 0.345
[11] | 0.705
[12] | 0.813
[13] | 0.183
[14] | 0.328
[15] | 0.111

CCC(=O)N1CCN(c2ccc(-n3c(=O)ccc4cnc5ccc(-c6cnc7ccccc7c6)cc5c43)cc2C(F)(F)F)CC1 [Torin1]
Conditions | area under dose-response curve
[1] | 0.477
[2] | < 0.0301
[3] | 0.218
[4] | 0.225
[5] | 0.614
[8] | 0.322
[9] | 0.802
[11] | 0.195
[12] | 0.36
[13] | 0.457
[14] | 0.0632
[15] | 0.183
